Reference: ChEMBL document CHEMBL1201861, “Genomics of Drug Sensitity in Cancer screening data, Wellcome Trust Sanger Institute”

Legend:
Test in all cases: cells
SF-268 = assay type: functional, cell-based, Homo sapiens; conditions: Homo sapiens, SF-268;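 further: growth inhibition of SF-268 cells determined with a cell viability assay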
Description: SANGER: Inhibition of human SF268 cell growth in a cell viability assay.

A498 = assay type: functional, cell-based, Homo sapiens; conditions: Homo sapiens, A498;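 further: growth inhibition of human A498 cells, read out with a cell viability assay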
Description: SANGER: Inhibition of human A498 cell growth in a cell viability assay.

ES8 = assay type: functional, cell-based, Homo sapiens; conditions: Homo sapiens, ES8;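 further: growth inhibition of human ES8 cells, read out with a cell viability assay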
Description: SANGER: Inhibition of human ES8 cell growth in a cell viability assay.

MZ7-mel = assay type: functional, cell-based, Homo sapiens; conditions: Homo sapiens, MZ7-mel;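 further: growth inhibition of human MZ7-mel cells, measured by a cell viability assay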
Description: SANGER: Inhibition of human MZ7-mel cell growth in a cell viability assay.

A101D = assay type: functional, cell-based, Homo sapiens; conditions: Homo sapiens, A101D;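 further: growth inhibition of the cell line, measured with a viability assay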
Description: SANGER: Inhibition of human A101D cell growth in a cell viability assay.

HH = assay type: functional, cell-based, Homo sapiens; conditions: Homo sapiens, HH
Description: SANGER: Inhibition of human HH cell growth in a cell viability assay.

HOP-62 = assay type: functional, cell-based, Homo sapiens; conditions: Homo sapiens, HOP-62;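 further: cell growth inhibition determined with a viability assay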
Description: SANGER: Inhibition of human HOP-62 cell growth in a cell viability assay.

BB65-RCC = assay type: functional, cell-based, Homo sapiens; conditions: Homo sapiens, BB65-RCC;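 further: growth inhibition of the cell line, measured with a cell viability assay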
Description: SANGER: Inhibition of human BB65-RCC cell growth in a cell viability assay.

KNS-42 = assay type: functional, cell-based; conditions: Homo sapiens;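 further: growth inhibition of KNS-42 cells, read out with a cell viability assay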
Description: SANGER: Inhibition of human KNS-42 cell growth in a cell viability assay.

MZ1-PC = assay type: functional, cell-based, Homo sapiens; conditions: Homo sapiens, MZ1-PC;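 further: cell viability assay measuring growth inhibition of human MZ1-PC cells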
Description: SANGER: Inhibition of human MZ1-PC cell growth in a cell viability assay.

SF-126 = assay type: functional, cell-based, Homo sapiens; conditions: Homo sapiens, SF-126;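 further: growth inhibition of human SF126 cells, read out with a cell viability assay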
Description: SANGER: Inhibition of human SF126 cell growth in a cell viability assay.

GI-1 = assay type: functional, cell-based, Homo sapiens; conditions: Homo sapiens, GI-1;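 further: growth inhibition of human GI-1 cells, measured with a cell viability readout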
Description: SANGER: Inhibition of human GI-1 cell growth in a cell viability assay.

HCE-4 = assay type: functional, cell-based; conditions: Homo sapiens;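 further: cell viability assay measuring inhibition of growth in the human HCE-4 cell line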
Description: SANGER: Inhibition of human HCE-4 cell growth in a cell viability assay.

ES6 = assay type: functional, cell-based; conditions: Homo sapiens;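 further: growth inhibition of human ES6 cells, read out with a cell viability assay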
Description: SANGER: Inhibition of human ES6 cell growth in a cell viability assay.

LOX IMVI = assay type: functional, cell-based, Homo sapiens; conditions: Homo sapiens, LOX IMVI
Description: SANGER: Inhibition of human LOXIMVI cell growth in a cell viability assay.

CGTH-W-1 = assay type: functional, cell-based, Homo sapiens; conditions: Homo sapiens, CGTH-W-1;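 further: growth inhibition of human CGTH-W-1 cells measured by cell viability assay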
Description: SANGER: Inhibition of human CGTH-W-1 cell growth in a cell viability assay.

KARPAS-45 = assay type: functional, cell-based, Homo sapiens; conditions: Homo sapiens, KARPAS-45;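 further: inhibition of cell line growth, read out through a viability assay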
Description: SANGER: Inhibition of human KARPAS-45 cell growth in a cell viability assay.

KARPAS-299 = assay type: functional, cell-based, Homo sapiens; conditions: Homo sapiens, KARPAS-299
Description: SANGER: Inhibition of human KARPAS-299 cell growth in a cell viability assay.

LS-123 = assay type: functional, cell-based, Homo sapiens; conditions: Homo sapiens, LS-123
Description: SANGER: Inhibition of human LS-123 cell growth in a cell viability assay.

SK-MEL-1 = assay type: functional, cell-based, Homo sapiens; conditions: Homo sapiens, SK-MEL-1;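 further: growth inhibition of human SK-MEL-1 cells, read out by a cell viability assay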
Description: SANGER: Inhibition of human SK-MEL-1 cell growth in a cell viability assay.

GOTO = assay type: functional, cell-based, Homo sapiens; conditions: Homo sapiens, GOTO;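 further: growth inhibition of GOTO cells, read out by a cell viability assay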
Description: SANGER: Inhibition of human GOTO cell growth in a cell viability assay.

IA-LM = assay type: functional, cell-based; conditions: Homo sapiens;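 further: cell viability assay measuring growth inhibition of human IA-LM cells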
Description: SANGER: Inhibition of human IA-LM cell growth in a cell viability assay.

COLO-800 = assay type: functional, cell-based, Homo sapiens; conditions: Homo sapiens, COLO-800;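 further: growth inhibition of COLO-800 cells, read out with a cell viability assay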
Description: SANGER: Inhibition of human COLO-800 cell growth in a cell viability assay.

MFM-223 = assay type: functional, cell-based, Homo sapiens; conditions: Homo sapiens, MFM-223
Description: SANGER: Inhibition of human MFM-223 cell growth in a cell viability assay.

SH-4 = assay type: functional, cell-based; conditions: Homo sapiens;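 further: growth inhibition of SH-4 cells, read out with a cell viability assay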
Description: SANGER: Inhibition of human SH-4 cell growth in a cell viability assay.

Mo = assay type: functional, cell-based, Homo sapiens; conditions: Homo sapiens, Mo
Description: SANGER: Inhibition of human Mo-T cell growth in a cell viability assay.

8-MG-BA = assay type: functional, cell-based, Homo sapiens; conditions: Homo sapiens, 8-MG-BA;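 further: growth inhibition of 8-MG-BA cells, read out with a cell viability assay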
Description: SANGER: Inhibition of human 8-MG-BA cell growth in a cell viability assay.

SNB-75 = assay type: functional, cell-based, Homo sapiens; conditions: Homo sapiens, SNB-75;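 further: cell viability assay measuring growth inhibition of human SNB-75 cells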
Description: SANGER: Inhibition of human SNB75 cell growth in a cell viability assay.

ES1 = assay type: functional, cell-based, Homo sapiens; conditions: Homo sapiens, ES1;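 further: growth inhibition of ES1 cells, read out with a cell viability assay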
Description: SANGER: Inhibition of human ES1 cell growth in a cell viability assay.

LU-134-A = assay type: functional, cell-based, Homo sapiens; conditions: Homo sapiens, LU-134-A
Description: SANGER: Inhibition of human LU-134-A cell growth in a cell viability assay.

SF-539 = assay type: functional, cell-based, Homo sapiens; conditions: Homo sapiens, SF-539;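 further: Read-out is a cell viability assay, with IC50 reflecting inhibition of cell growth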
Description: SANGER: Inhibition of human SF539 cell growth in a cell viability assay.

TE-12 = assay type: functional, cell-based, Homo sapiens; conditions: Homo sapiens, TE-12;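 further: growth inhibition of TE-12 cells, read out by a cell viability assay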
Description: SANGER: Inhibition of human TE-12 cell growth in a cell viability assay.

GB-1 = assay type: functional, cell-based, Homo sapiens; conditions: Homo sapiens, GB-1;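 further: growth of GB-1 cells judged by a viability assay, IC50 marks the concentration inhibiting growth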
Description: SANGER: Inhibition of human GB-1 cell growth in a cell viability assay.

NCI-H1355 = assay type: functional, cell-based, Homo sapiens; conditions: Homo sapiens, NCI-H1355;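 further: growth inhibition of human NCI-H1355 cells, read out by a cell viability assay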
Description: SANGER: Inhibition of human NCI-H1355 cell growth in a cell viability assay.

KS-1 = assay type: functional, cell-based; conditions: Homo sapiens;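 further: growth inhibition of KS-1 cells, read out with a cell viability assay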
Description: SANGER: Inhibition of human KS-1 cell growth in a cell viability assay.

C2BBe1 = assay type: functional, cell-based, Homo sapiens; conditions: Homo sapiens, C2BBe1;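 further: growth inhibition of C2BBe1 cells, read out through a viability assay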
Description: SANGER: Inhibition of human C2BBe1 cell growth in a cell viability assay.

SCC-15 = assay type: functional, cell-based, Homo sapiens; conditions: Homo sapiens, SCC-15;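 further: growth inhibition of SCC-15 cells, read out with a cell viability assay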
Description: SANGER: Inhibition of human SCC-15 cell growth in a cell viability assay.

VA-ES-BJ = assay type: functional, cell-based, Homo sapiens; conditions: Homo sapiens, VA-ES-BJ;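 further: growth inhibition of the VA-ES-BJ cell line, read out by a cell viability assay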
Description: SANGER: Inhibition of human VA-ES-BJ cell growth in a cell viability assay.

D-263MG = assay type: functional, cell-based, Homo sapiens; conditions: Homo sapiens, D-263MG
Description: SANGER: Inhibition of human D-263MG cell growth in a cell viability assay.

MLMA = assay type: functional, cell-based, Homo sapiens; conditions: Homo sapiens, MLMA;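 further: growth inhibition of MLMA cells (human), determined through a cell viability readout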
Description: SANGER: Inhibition of human MLMA cell growth in a cell viability assay.

LB2518-MEL = assay type: functional, cell-based; conditions: Homo sapiens;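 further: growth inhibition of human LB2518-MEL cells, measured with a cell viability assay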
Description: SANGER: Inhibition of human LB2518-MEL cell growth in a cell viability assay.

Ramos-2G6-4C10 = assay type: functional, cell-based, Homo sapiens; conditions: Homo sapiens, Ramos-2G6-4C10;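 further: growth inhibition of the cell line, measured by a cell viability read-out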
Description: SANGER: Inhibition of human Ramos-2G6-4C10 cell growth in a cell viability assay.

TGBC24TKB = assay type: functional, cell-based; conditions: Homo sapiens;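 further: growth inhibition of human TGBC24TKB cells, read out with a cell viability assay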
Description: SANGER: Inhibition of human TGBC24TKB cell growth in a cell viability assay.

LNCaP-Clone-FGC = assay type: functional, cell-based, Homo sapiens; conditions: Homo sapiens, LNCaP-Clone-FGC
Description: SANGER: Inhibition of human LNCaP-Clone-FGC cell growth in a cell viability assay.

NCI-H209 = assay type: functional, cell-based, Homo sapiens; conditions: Homo sapiens, NCI-H209;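 further: growth inhibition of human NCI-H209 cells, measured by a cell viability assay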
Description: SANGER: Inhibition of human NCI-H209 cell growth in a cell viability assay.

RPMI-8866 = assay type: functional, cell-based, Homo sapiens; conditions: Homo sapiens, RPMI-8866
Description: SANGER: Inhibition of human RPMI-8866 cell growth in a cell viability assay.

DMS-114 = assay type: functional, cell-based, Homo sapiens; conditions: Homo sapiens, DMS-114
ETK-1 = assay type: functional, cell-based, Homo sapiens; conditions: Homo sapiens, ETK-1;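 further: growth inhibition of human ETK-1 cells, read out with a cell viability assay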
Description: SANGER: Inhibition of human ETK-1 cell growth in a cell viability assay.

NTERA-2-cl-D1 = assay type: functional, cell-based, Homo sapiens; conditions: Homo sapiens, NTERA-2-cl-D1;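 further: inhibition of cell growth, measured with a cell viability assay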
Description: SANGER: Inhibition of human NTERA-S-cl-D1 cell growth in a cell viability assay.

TGW = assay type: functional, cell-based, Homo sapiens; conditions: Homo sapiens, TGW;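 further: growth inhibition of human TGW cells, read out with a cell viability assay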
Description: SANGER: Inhibition of human TGW cell growth in a cell viability assay.

HCC2157 = assay type: functional, cell-based, Homo sapiens; conditions: Homo sapiens, HCC2157;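 further: growth inhibition of the cancer cell line, read out as cell viability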
Description: SANGER: Inhibition of human HCC2157 cell growth in a cell viability assay.

Measured: IC50

NC(=O)c1ccc(N(C(N)=O)c2c(F)cccc2F)nc1-c1ccc(F)cc1F [VX-702]
148 nM: KARPAS-45
15.4 nM: HOP-62
176 nM: NCI-H209
> 2000 nM: SF-268 | A498 | ES8 | MZ7-mel | A101D | HH | BB65-RCC | KNS-42 | MZ1-PC | SF-126 | GI-1 | HCE-4 | ES6 | LOX IMVI | CGTH-W-1 | KARPAS-299 | LS-123 | SK-MEL-1 | GOTO | IA-LM | COLO-800 | MFM-223 | SH-4 | Mo | 8-MG-BA | SNB-75 | ES1 | LU-134-A | SF-539 | TE-12 | GB-1 | NCI-H1355 | KS-1 | C2BBe1 | SCC-15 | VA-ES-BJ | D-263MG | MLMA | LB2518-MEL | Ramos-2G6-4C10 | TGBC24TKB | LNCaP-Clone-FGC | RPMI-8866 | DMS-114 | ETK-1 | NTERA-2-cl-D1

NC(=O)Nc1cc(-c2cccc(F)c2)sc1C(=O)N[C@H]1CCCNC1 [AZD-7762]
429 nM: LOX IMVI
148 nM: Ramos-2G6-4C10
99.2 nM: ES8
1730 nM: A498
574 nM: SF-126
196 nM: GI-1
708 nM: HH
909 nM: D-263MG
1700 nM: A101D
1440 nM: LNCaP-Clone-FGC
637 nM: ETK-1
603 nM: COLO-800
970 nM: HCE-4
226 nM: VA-ES-BJ
442 nM: ES6
168 nM: KARPAS-45
324 nM: NCI-H209
1400 nM: IA-LM
137 nM: SF-539
258 nM: 8-MG-BA
466 nM: KS-1
271 nM: BB65-RCC
726 nM: HOP-62
1810 nM: LS-123
679 nM: NCI-H1355
139 nM: RPMI-8866
28.5 nM: MLMA
689 nM: C2BBe1
> 2000 nM: KNS-42 | MZ1-PC | KARPAS-299 | SK-MEL-1 | SH-4 | Mo | TE-12 | SCC-15 | LB2518-MEL | DMS-114 | NTERA-2-cl-D1
31.2 nM: GOTO
1240 nM: MFM-223
165 nM: TGBC24TKB
14.2 nM: CGTH-W-1
71.5 nM: ES1
1380 nM: GB-1
1200 nM: SNB-75
347 nM: MZ7-mel
881 nM: SF-268
657 nM: LU-134-A

CN(C)CCOc1ccc(-c2nc(-c3ccncc3)c(-c3ccc4c(c3)CC/C4=N\O)[nH]2)cc1 [SB590885]
3920 nM: KARPAS-45
812 nM: SH-4
1960 nM: C2BBe1
500 nM: A101D
> 5000 nM: SF-268 | A498 | ES8 | MZ7-mel | HH | BB65-RCC | KNS-42 | MZ1-PC | SF-126 | GI-1 | HCE-4 | ES6 | CGTH-W-1 | TGW | KARPAS-299 | LS-123 | SK-MEL-1 | GOTO | IA-LM | COLO-800 | MFM-223 | Mo | 8-MG-BA | SNB-75 | HCC2157 | ES1 | LU-134-A | SF-539 | TE-12 | GB-1 | NCI-H1355 | KS-1 | SCC-15 | VA-ES-BJ | D-263MG | MLMA | LB2518-MEL | Ramos-2G6-4C10 | TGBC24TKB | LNCaP-Clone-FGC | NCI-H209 | RPMI-8866 | DMS-114 | ETK-1 | NTERA-2-cl-D1
3190 nM: LOX IMVI
